Measurements as given in article PMC4043666, “Mass Spectrometry Based Identification of Geometric Isomers during Metabolic Stability Study of a New Cytotoxic Sulfonamide Derivatives Supported by Quantitative Structure-Retention Relationships” (PLoS ONE, 2014).

Tests used:
[1] = In vitro metabolic stability in human liver microsomes (LC-MS); type: in vitro ADME; settings: for % of compound remaining after 120 min incubation: HLM 0.53 mg/mL, 1 mM NADPH, compound 10 µM, phosphate buffer pH 7.4, 37°C, percentage of peak area of trans isomer at start of incubation
Description: Stock solutions of the studied compounds were made at a concentration of 1 mM in DMSO:MeOH mixture (10∶90 v/v) to prevent their precipitation. For biotransformation incubations, the solution of compounds was diluted to 10 µM with the presence of 1 mM of NADPH (Sigma-Aldrich, St. Louis, MO, USA) in a potassium phosphate buffer (0.1 M, pH 7.4). Incubation was carried out in thermoblock (Labnet International, Edison, NJ, USA) at 37°C and started with the addition of pooled human liver microsomes with a final concentration of 0.53 mg/mL (Sigma-Aldrich, St. Louis, MO, USA). Directly after HLM was added and at 120 min of incubation the reaction was ended by the addition of an equal volume of ice-cold methanol with 0.1% (v/v) of formic acid. The samples were immediately centrifuged (10 min at 11700 g) and the resulting supernatant was directly analyzed or kept at −80°C until LC-MS or LC-QTOF-MS analysis.
(§1) LC-MS analysis was performed on an Agilent 1260 system coupled to a SingleQuad 6120 mass spectrometer (Agilent Technologies, Santa Clara, CA, USA). The amount of remaining parent compound was determined as a percentage of a peak area of a trans isomer at the start of the incubation.
(§2) A Poroshell C18 EC120 column (3.0×100 mm, 2.7 µm, Agilent Technologies, Santa Clara, CA, USA) was used in reversed-phase mode with gradient elution starting with 5% of phase A (0.1% formic acid in water) and 95% of phase B (0.1% formic acid in acetonitrile). […] The total analysis time was 42 min at 25°C, the flow rate was 0.25 mL/min and the injection volume was 20 µL. The mass spectrometer was equipped with an electrospray ionization source and the ionization mode was positive. The mass analyzer was set individually to each derivative to detect pseudomolecular ions [M+H^+]. The mass spectrometry detector parameters of the ESI source were as follows: nebulizer pressure 40 psi (N2), drying gas […] (N2), drying gas temperature 300°C, capillary voltage +3 kV.

[2] = Chemical stability / cis-trans isomerization in solution (LC-MS); type: physicochemical; settings: for % of isomerization at the beginning of incubation: biotransformation incubation samples, start of incubation
Description: Additionally, chemical stability (negative control) in biotransformation experiment conditions was performed (phosphate buffer, 37°C, 2 h) to evaluate possible instability, unrelated to the activity of microsomes (including putative isomerization).
as §1, §2

[3] = RP-LC determination of chromatographic lipophilicity log kw (DryLab); type: physicochemical; settings: Poroshell EC18 column, 30°C, acetonitrile 5-100% gradients of 30 and 60 min, calculated with DryLab
Description: (2) In order to obtain input lipophilicity data, reversed-phase liquid chromatography (RP-LC) log kw determination experiments were performed using the Agilent 1260 apparatus (Agilent Technologies, Santa Clara, CA, USA) equipped with UV and single quadrupole mass detectors, and an autosampler and column thermostat. A Poroshell EC18 150×3 mm column with a particle size of 2.7 µm was applied. Chromatographic measurements were made at 30°C with an eluent flow rate of 0.25 mL/min. Two chromatographic runs were conducted for each compound with different linear gradient times (30 and 60 min), and with an acetonitrile composition in the mobile phase increasing from 5% to 100%. The obtained retention times were further used to calculate log kw values applying the DryLab 2000 Plus software (LC Resources, Walnut Creek, CA, USA). DryLab estimated the log kw value according to the linear equation: log k = logkw+Sφ (k – retention factor, S – slope, φ – volume fraction of the organic modifier) The elution program, as well as the column, mobile phase and instrument properties were taken into account to determine the coefficients in the abovementioned equation. Two analytical runs were required to fit the data, and peak assignment was done manually to ensure the correct identification.

SMILES | % of compound remaining after 120 min incubation [1] [%] | % of isomerization at the beginning of incubation [2] [%] | biotransformation reactions observed ([1]; HLM with NADPH, LC-MS/MS) | logkw [3] | cis-trans isomerization in the studied conditions ([2]; water solution / incubation conditions)
CCC/C(=N\Nc1ccc([N+](=O)[O-])cc1)Sc1cc(Cl)c(C)cc1S(N)(=O)=O [Compound 2] | 75.13 | 6.52 | – | – | –
Cc1cc(S(N)(=O)=O)c(S/C(=N/Nc2ccc([N+](=O)[O-])cc2)c2ccc([N+](=O)[O-])cc2)cc1Cl [Compound 11] | 98.97 | 1.50 | – | – | –
Cc1cc(S(N)(=O)=O)c(S/C(=N/Nc2ccc([N+](=O)[O-])cc2[N+](=O)[O-])C(C)C)cc1Cl [Compound 4] | 62.86 | 0.00 | – | – | did not occur
Cc1cc(S(N)(=O)=O)c(S/C(=N/Nc2ccc([N+](=O)[O-])cc2)C(C)C)cc1Cl [Compound 3] | 76.13 | 7.76 | – | – | –
CCC(=NNc1ccc([N+](=O)[O-])cc1)Sc1cc(Cl)c(C)cc1S(N)(=O)=O [Compound 1] | 53.51 | 5.84 | – | – | –
Cc1cc(S(N)(=O)=O)c(S/C(=N/Nc2ccc([N+](=O)[O-])cc2)C(C)(C)C)cc1Cl [Compound 6] | 83.88 | 3.50 | – | – | –
Cc1cc(S(N)(=O)=O)c(S/C(CC(C)C)=N/Nc2ccc([N+](=O)[O-])cc2)cc1Cl [Compound 5] | 79.95 | 5.84 | – | – | –
CC/C(=N/Nc1ccc([N+](=O)[O-])cc1)Sc1cc(Cl)c(C)cc1S(N)(=O)=O [1-cis] | – | – | – | 3.52 | –
CC/C(=N\Nc1ccc([N+](=O)[O-])cc1)Sc1cc(Cl)c(C)cc1S(N)(=O)=O [1-trans] | – | – | – | 3.60 | –

Second part, led by results:

% of compound remaining after 120 min incubation [1] [%] | % of isomerization at the beginning of incubation [2] [%] | biotransformation reactions observed ([1]; HLM with NADPH, LC-MS/MS) | logkw [3] | SMILES | cis-trans isomerization in the studied conditions ([2]; water solution / incubation conditions)
95.11 | 5.41 | – | – | Cc1ccc(/C(=N\Nc2ccc([N+](=O)[O-])cc2)Sc2cc(Cl)c(C)cc2S(N)(=O)=O)cc1 [Compound 12] | –
58.23 | 5.25 | – | – | Cc1cc(S(N)(=O)=O)c(S/C(CCc2ccccc2)=N/Nc2ccc([N+](=O)[O-])cc2)cc1Cl [Compound 8] | –
60.90 | 5.53 | – | – | CCCCC/C(=N\Nc1ccc([N+](=O)[O-])cc1)Sc1cc(Cl)c(C)cc1S(N)(=O)=O [Compound 7] | –
74.88 | – | reductive debromination reaction | – | Cc1cc(S(N)(=O)=O)c(SC(=NNc2ccc([N+](=O)[O-])cc2)c2ccc(O)c(Br)c2)cc1Cl [Compound 14] | –
95.33 | 2.66 | – | – | COc1ccc(/C(=N\Nc2ccc([N+](=O)[O-])cc2)Sc2cc(Cl)c(C)cc2S(N)(=O)=O)cc1 [Compound 13] | –
90.80 | 7.79 | – | – | Cc1cc(S(N)(=O)=O)c(S/C(=N/Nc2ccc([N+](=O)[O-])cc2)c2ccc(Cl)cc2)cc1Cl [Compound 10] | –
99.40 | 4.93 | – | – | Cc1cc(S(N)(=O)=O)c(S/C(=N/Nc2ccc([N+](=O)[O-])cc2)c2ccc3ccccc3c2)cc1Cl [Compound 15] | –
96.03 | 9.28 | – | – | Cc1cc(S(N)(=O)=O)c(S/C(=N/Nc2ccc([N+](=O)[O-])cc2)c2ccccc2)cc1Cl [Compound 9] | –
